The values that follow come from US20040067955A1, “Pyridazinone compound and pharmaceutical use thereof” (Fujisawa Pharmaceutical Co. Ltd., priority 2002, published 2004).

Each structure is given as a SMILES string.

Usually Ki stands for a dissociation constant, usually derived from enzyme kinetics or from competition with a known ligand. A lower Ki goes with a stronger hold on the target. Usually melting point stands for the temperature, or range, at which the solid turns liquid.

human A2a receptor, sequence (P29274 whole entry): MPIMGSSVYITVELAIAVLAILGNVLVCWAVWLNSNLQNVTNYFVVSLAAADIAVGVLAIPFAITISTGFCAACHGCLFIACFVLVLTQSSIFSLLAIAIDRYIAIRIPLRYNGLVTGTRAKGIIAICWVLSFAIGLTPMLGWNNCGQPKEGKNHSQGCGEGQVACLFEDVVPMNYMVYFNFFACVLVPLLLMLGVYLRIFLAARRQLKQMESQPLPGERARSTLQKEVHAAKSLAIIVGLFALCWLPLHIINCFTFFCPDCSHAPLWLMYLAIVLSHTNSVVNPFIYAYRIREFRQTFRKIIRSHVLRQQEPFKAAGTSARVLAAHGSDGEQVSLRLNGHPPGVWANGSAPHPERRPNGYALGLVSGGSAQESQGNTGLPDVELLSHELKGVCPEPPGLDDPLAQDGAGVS

One data set concerns the target human A2a receptor (Homo sapiens, UniProt P29274). Briefly: Adenosine antagonistic activity: radioligand binding with [3H]CGS 21680 (20 nM). The method, then: (§1) The adenosine antagonistic activity [Ki(nM)] of the test compound was examined by radioligand binding techniques using 8-cyclopentyl-1,3-dipropylxanthine, [dipropyl-2,3-^3H (N)] ([^3H]DPCPX, 4.5 nM) for human A1 receptor and [^3H]CGS 21680 (20 nM) for human A2a receptor.
As for `CC(C)n1nc(-c2cc(O)cnc2-c2ccccc2)ccc1=O` [Example 53, 6-(5-hydroxy-2-phenyl-3-pyridyl)-2-isopropyl-3(2H)-pyridazinone], the affinity, expressed as Ki, was 3.87 nM.

Consider `CC(C)n1nc(-c2cc(-c3nc(-c4ccccc4)cs3)c(N)nc2-c2ccccc2)ccc1=O` [Example 40, 6-[6-Amino-5-(4-phenyl-1,3-thiazol-2-yl)-2-phenyl-3-pyridyl]-2-isopropyl-3(2H)-pyridazinone], for which the affinity, expressed as Ki, was 6.58 nM.

In turn, `CC(C)n1nc(-c2cc(Br)c(N)nc2-c2ccccc2)ccc1=O` [Example 33, 6-(6-amino-5-bromo-2-phenyl-3-pyridyl)-2-isopropyl-3(2H)-pyridazinone] returned a Ki of 0.91 nM.

The next data set concerns the target T1, human A1 receptor (Homo sapiens, UniProt P30542).
T1 sequence (P30542 1-326): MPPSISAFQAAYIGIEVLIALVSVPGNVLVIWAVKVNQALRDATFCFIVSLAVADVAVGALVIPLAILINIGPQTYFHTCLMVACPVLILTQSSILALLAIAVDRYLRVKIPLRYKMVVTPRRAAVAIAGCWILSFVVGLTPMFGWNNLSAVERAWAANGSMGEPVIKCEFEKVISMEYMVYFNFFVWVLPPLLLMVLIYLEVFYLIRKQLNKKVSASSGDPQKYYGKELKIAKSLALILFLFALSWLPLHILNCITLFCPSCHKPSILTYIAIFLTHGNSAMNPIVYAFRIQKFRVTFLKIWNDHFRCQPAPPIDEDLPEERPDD
Description: Adenosine antagonistic activity: radioligand binding with [3H]DPCPX (4.5 nM). The method, then: as §1
Consider `CC(C)n1nc(-c2cc(O)cnc2-c2ccccc2)ccc1=O` [Example 53, 6-(5-hydroxy-2-phenyl-3-pyridyl)-2-isopropyl-3(2H)-pyridazinone], for which the Ki was 0.43 nM.

The molecule `CC(C)n1nc(-c2cc(-c3nc(-c4ccccc4)cs3)c(N)nc2-c2ccccc2)ccc1=O` [Example 40, 6-[6-Amino-5-(4-phenyl-1,3-thiazol-2-yl)-2-phenyl-3-pyridyl]-2-isopropyl-3(2H)-pyridazinone] returned a Ki of 4.44 nM.

In the case of `CC(C)n1nc(-c2cc(Br)c(N)nc2-c2ccccc2)ccc1=O` [Example 33, 6-(6-amino-5-bromo-2-phenyl-3-pyridyl)-2-isopropyl-3(2H)-pyridazinone], the Ki was found to be 0.41 nM.

Test system in another data set: not given
Test: not given
For `CC(C)n1nc(-c2cc(C#N)c(Cl)nc2-c2ccccc2)ccc1=O` [Example 2, 2-chloro-5-(1-isopropyl-6-oxo-1,6-dihydro-3-pyridazinyl)-6-phenylnicotinonitrile], the melting point is 191 to 192 °C.

As for `CC(C)n1nc(-c2cc(C(=O)NCc3ccccn3)cnc2-c2ccccc2)ccc1=O` [Example 17, 5-(1-Isopropyl-6-oxo-1,6-dihydro-3-pyridazinyl)-6-phenyl-N-(2-pyridylmethyl)nicotinamide], the melting point was in the range of 193 to 194 °C.

As for `CC(C)n1nc(-c2ccc(OCC(N)=O)nc2-c2ccccc2)ccc1=O` [Example 31, 2-{[5-(1-isopropyl-6-oxo-1,6-dihydro-3-pyridazinyl)-6-phenyl-2-pyridyl]oxy}acetamide], the melting point is 137 to 138 °C.

On to `COC(=O)c1cc(-c2ccc(=O)n(C(C)C)n2)c(-c2ccccc2)nc1OCC(N)=O` [Example 50, Methyl 2-carbamoylmethoxy-5-(1-isopropyl-6-oxo-1,6-dihydro-3-pyridazinyl)-6-phenylnicotinate], for which the melting point lay within 183 to 184 °C.

`COC(=O)c1nc(-c2ccccc2)c(-c2ccc(=O)n(C(C)C)n2)cc1C#N` [Example 9, methyl 3-cyano-5-(1-isopropyl-6-oxo-1,6-dihydro-3-pyridazinyl)-6-phenyl-2-pyridinecarboxylate]: the melting point fell in the range of 136 to 138 °C.

The molecule `CC(C)n1nc(-c2ccc(=O)[nH]c2-c2ccccc2)ccc1=O` [Example 30, 2-isopropyl-6-(6-oxo-2-phenyl-1,6-dihydro-3-pyridyl)-3(2H)-pyridazinone] registered a melting point of 107 to 109 °C.

In turn, `CC(C)n1nc(-c2c(-c3ccccc3)nc(Cl)c(N)c2Cl)ccc1=O` [Example 77, 6-(5-amino-4,6-dichloro-2-phenyl-3-pyridyl)-2-isopropyl-3(2H)-pyridazinone] displayed a melting point of 186 to 188 °C.

`CC(C)n1nc(-c2cc(-n3cccc3)cnc2-c2ccccc2)ccc1=O` [Example 29, 2-isopropyl-6-[2-phenyl-5-(1H-pyrrol-1-yl)-3-pyridyl]-3(2H)-pyridazinone] displayed a melting point of 189 to 190 °C.

With `CC(C)n1nc(-c2ccc(N)nc2-c2ccccc2)ccc1=O` [Example 32, 6-(6-amino-2-phenyl-3-pyridyl)-2-isopropyl-3(2H)-pyridazinone], the melting point was 167 to 171 °C.

In turn, `COc1nc(-c2ccccc2)c(-c2ccc(=O)n(C(C)C)n2)cc1C#N` [Example 10, 5-(1-isopropyl-6-oxo-1,6-dihydro-3-pyridazinyl)-2-methoxy-6-phenylnicotinonitrile] displayed a melting point of 187 to 189 °C.

With `CC(C)n1nc(-c2cc(C#N)c(C(=O)O)nc2-c2ccccc2)ccc1=O` [Example 11, 3-cyano-5-(1-isopropyl-6-oxo-1,6-dihydro-3-pyridazinyl)-6-phenyl-2-pyridinecarboxylic acid], the melting point fell in the range of 196 to 198 °C.

For `CC(C)n1nc(-c2cc(C(N)=O)c(Cl)nc2-c2ccccc2)ccc1=O` [Example 5, 2-chloro-5-(1-isopropyl-6-oxo-1,6-dihydro-3-pyridazinyl)-6-phenylnicotinamide], the melting point lay within 199 to 200 °C.

`CC(=O)Nc1cnc(-c2ccccc2)c(-c2ccc(=O)n(C(C)C)n2)c1` [Example 28, N-[5-(1-Isopropyl-6-oxo-1,6-dihydro-3-pyridazinyl)-6-phenyl-3-pyridyl]acetamide] gave a melting point of 207 to 208 °C.

`CC(=O)c1cnc(-c2ccccc2)c(-c2ccc(=O)n(C(C)C)n2)c1` [Example 23, 6-(5-acetyl-2-phenyl-3-pyridyl)-2-isopropyl-3(2H)-pyridazinone] gave a melting point of 207 to 208 °C.

The molecule `CC(C)n1nc(-c2cc(Cl)c(N)nc2-c2ccccc2)ccc1=O` [Example 34, 6-(6-amino-5-chloro-2-phenyl-3-pyridyl)-2-isopropyl-3 (2H)-pyridazinone] came in with a melting point of 207 to 208 °C.

Molecule `CC(C)n1nc(-c2cc(C#N)cnc2-c2ccccc2)ccc1=O` [Example 8, 5-(1-isopropyl-6-oxo-1,6-dihydro-3-pyridazinyl)-6-phenylnicotinonitrile] gave a melting point of 133 to 135 °C.

The molecule `CC(C)n1nc(-c2cc(-c3ccccc3)c(N)nc2-c2ccccc2)ccc1=O` [Example 36, 6-(6-amino-2,5-diphenyl-3-pyridyl)-2-isopropyl-3 (2H)-pyridazinone] had a melting point of 208 to 209 °C.

`CC(C)n1nc(-c2cc(C#N)c(C(N)=O)nc2-c2ccccc2)ccc1=O` [Example 12, 3-cyano-5-(1-isopropyl-6-oxo-1,6-dihydro-3-pyridazinyl)-6-phenyl-2-pyridinecarboxamide] registered a melting point of 221 to 223 °C.

`CC(C)n1nc(-c2cc(C(N)=O)cnc2-c2ccccc2)ccc1=O` [Example 6, 5-(1-isopropyl-6-oxo-1,6-dihydro-3-pyridazinyl)-6-phenylnicotinamide] yielded a melting point of 229 to 230 °C.

As for `CC(C)n1nc(-c2cc(I)c(N)nc2-c2ccccc2)ccc1=O` [Example 35, 6-(6-amino-5-iodo-2-phenyl-3-pyridyl)-2-isopropyl-3 (2H)-pyridazinone], the melting point was in the range of 196 to 197 °C.

The molecule `CC(C)n1nc(-c2cc(C(=O)N3CCOCC3)cnc2-c2ccccc2)ccc1=O` [Example 18, 2-Isopropyl-6-[5-(4-morpholinylcarbonyl)-2-phenyl-3-pyridyl]-3 (2H)-pyridazinone] yielded a melting point of 132 to 133 °C.

`CC(C)n1nc(-c2cc(C#N)c(=O)[nH]c2-c2ccccc2)ccc1=O` [Example 1, 5-(1-isopropyl-6-oxo-1,6-dihydro-3-pyridazinyl)-2-oxo-6-phenyl-1,2-dihydro-3-pyridine-carbonitrile] displayed a melting point of over 250 °C.

With `CC(C)n1nc(-c2cc(C(=O)O)c(=O)[nH]c2-c2ccccc2)ccc1=O` [Example 13, 5-(1-isopropyl-6-oxo-1,6-dihydro-3-pyridazinyl)-2-oxo-6-phenyl-1,2-dihydro-3-pyridinecarboxylic acid], the melting point is 212 to 215 °C.

As to `CC(C)n1nc(-c2cc(C(=O)NCCN3CCOCC3)cnc2-c2ccccc2)ccc1=O` [Example 22, 5-(1-Isopropyl-6-oxo-1,6-dihydro-3-pyridazinyl)-N-[2-(4-morpholinyl)ethyl]-6-phenylnicotinamide], the melting point lay in the range of 162 to 163 °C.

As for `CC(C)n1nc(-c2cc(N)cnc2-c2ccccc2)ccc1=O` [Example 26, 6-(5-amino-2-phenyl-3-pyridyl)-2-isopropyl-3 (2H)-pyridazinone], the melting point is 147 to 148 °C.

In turn, `CC(C)n1nc(-c2cc(C(=O)N3CCN(C)CC3)cnc2-c2ccccc2)ccc1=O` [Example 19, 2-Isopropyl-6-{5-[(4-methyl-1-piperazinyl)carbonyl]-2-phenyl-3-pyridyl}-3(2H)-pyridazinone] returned a melting point of 165 to 166 °C.

With `CNC(=O)c1cnc(-c2ccccc2)c(-c2ccc(=O)n(C(C)C)n2)c1` [Example 15, 5-(1-isopropyl-6-oxo-1,6-dihydro-3-pyridazinyl)-N-methyl-6-phenyl-nicotinamide], the melting point fell in the range of 212 to 213 °C.

With `CC(C)n1nc(-c2cc(C(=O)NCCO)cnc2-c2ccccc2)ccc1=O` [Example 20, N-(2-Hydroxyethyl)-5-(1-isopropyl-6-oxo-1,6-dihydro-3-pyridazinyl)-6-phenylnicotinamide], the melting point fell in the range of 165 to 167 °C.

In turn, `CC(C)n1nc(-c2cc(C(=O)NCc3ccccc3)cnc2-c2ccccc2)ccc1=O` [Example 16, N-Benzyl-5-(1-isopropyl-6-oxo-1,6-dihydro-3-pyridazinyl)-6-phenylnicotinamide] came in with a melting point of 205 to 206 °C.

`CC(C)n1nc(-c2cc(C(N)=O)c(N)nc2-c2ccccc2)ccc1=O` [Example 7, 2-Amino-5-(1-isopropyl-6-oxo-1,6-dihydro-3-pyridazinyl)-6-phenylnicotinamide] gave a melting point of over 250 °C.

Molecule `CC(C)n1nc(-c2cc(Br)c(N)nc2-c2ccccc2)ccc1=O` [Example 33, 6-(6-amino-5-bromo-2-phenyl-3-pyridyl)-2-isopropyl-3(2H)-pyridazinone] came in with a melting point of 174 to 176 °C.

In turn, `CC(C)n1nc(-c2cc(-c3ncnn3C)c(N)nc2-c2ccccc2)ccc1=O` [Example 122, 6-[6-amino-5-(1-methyl-1H-1,2,4-triazol-5-yl)-2-phenyl-3-pyridyl]-2-isopropyl-3 (2H)-pyridazinone] returned a melting point of 253 to 254 °C.
